Experimental data from patent US9156845B2, “4-(substituted amino)-7H-pyrrolo[2,3-d] pyrimidines as LRRK2 inhibitors” (Pfizer Inc., priority 2012, dated 2015).

Assays:
[1] = target: GST-tagged truncated LRRK2 (Homo sapiens (Human), UniProt Q5S007); test: LRRK2 Lantha Screen kinase assay; format: biochemical; settings: geometric mean of 2-5 determinations unless otherwise indicated (a: >=6 determinations; b: single determination); read-out: LRRK2 WT IC50
CaMK2g = CaMK2g (Homo sapiens (Human), UniProt Q13555); test: ActivX kinase probe assay (human PBMC); format: binding; settings: CaMK2g, read-out: percent inhibition
CDC2 = CDC2 (Homo sapiens (Human), UniProt P06493); test: ActivX kinase probe assay (human PBMC); format: binding; settings: CDC2, read-out: percent inhibition
CDK2 = CDK2 (Homo sapiens (Human), UniProt P24941); test: ActivX kinase probe assay (human PBMC); format: binding; settings: CDK2, read-out: percent inhibition
eEF2K = eEF2K (Homo sapiens (Human), UniProt O00418); test: ActivX kinase probe assay (human PBMC); format: binding; settings: eEF2K, read-out: percent inhibition
Sequence of eEF2K (O00418 whole entry): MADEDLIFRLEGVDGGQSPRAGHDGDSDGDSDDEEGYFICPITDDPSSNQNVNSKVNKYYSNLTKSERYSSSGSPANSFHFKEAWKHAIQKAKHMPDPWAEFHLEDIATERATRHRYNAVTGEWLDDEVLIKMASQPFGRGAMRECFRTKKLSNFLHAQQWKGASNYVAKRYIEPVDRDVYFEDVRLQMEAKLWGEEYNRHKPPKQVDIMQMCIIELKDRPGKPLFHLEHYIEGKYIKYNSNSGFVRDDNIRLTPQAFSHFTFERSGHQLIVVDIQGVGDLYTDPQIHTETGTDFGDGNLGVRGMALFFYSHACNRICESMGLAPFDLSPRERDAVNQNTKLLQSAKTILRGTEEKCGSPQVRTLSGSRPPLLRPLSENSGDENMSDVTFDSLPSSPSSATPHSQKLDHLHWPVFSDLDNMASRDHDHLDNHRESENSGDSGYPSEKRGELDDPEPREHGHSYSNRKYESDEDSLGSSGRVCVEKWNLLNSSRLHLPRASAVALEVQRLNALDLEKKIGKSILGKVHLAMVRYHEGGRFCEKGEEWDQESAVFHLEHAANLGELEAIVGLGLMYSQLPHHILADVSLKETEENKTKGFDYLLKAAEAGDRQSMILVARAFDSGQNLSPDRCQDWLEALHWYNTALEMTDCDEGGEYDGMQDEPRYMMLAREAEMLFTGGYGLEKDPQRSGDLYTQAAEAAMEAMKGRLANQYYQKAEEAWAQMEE

Erk5 = Erk5 (Homo sapiens (Human), UniProt Q13164); test: ActivX kinase probe assay (human PBMC); format: binding; settings: Erk5, read-out: percent inhibition
FES = FES (Homo sapiens (Human), UniProt P07332); test: ActivX kinase probe assay (human PBMC); format: binding; settings: FES, read-out: percent inhibition
GCK = GCK (Homo sapiens (Human), UniProt Q12851); test: ActivX kinase probe assay (human PBMC); format: binding; settings: GCK, read-out: percent inhibition
Sequence of GCK (Q12851 whole entry): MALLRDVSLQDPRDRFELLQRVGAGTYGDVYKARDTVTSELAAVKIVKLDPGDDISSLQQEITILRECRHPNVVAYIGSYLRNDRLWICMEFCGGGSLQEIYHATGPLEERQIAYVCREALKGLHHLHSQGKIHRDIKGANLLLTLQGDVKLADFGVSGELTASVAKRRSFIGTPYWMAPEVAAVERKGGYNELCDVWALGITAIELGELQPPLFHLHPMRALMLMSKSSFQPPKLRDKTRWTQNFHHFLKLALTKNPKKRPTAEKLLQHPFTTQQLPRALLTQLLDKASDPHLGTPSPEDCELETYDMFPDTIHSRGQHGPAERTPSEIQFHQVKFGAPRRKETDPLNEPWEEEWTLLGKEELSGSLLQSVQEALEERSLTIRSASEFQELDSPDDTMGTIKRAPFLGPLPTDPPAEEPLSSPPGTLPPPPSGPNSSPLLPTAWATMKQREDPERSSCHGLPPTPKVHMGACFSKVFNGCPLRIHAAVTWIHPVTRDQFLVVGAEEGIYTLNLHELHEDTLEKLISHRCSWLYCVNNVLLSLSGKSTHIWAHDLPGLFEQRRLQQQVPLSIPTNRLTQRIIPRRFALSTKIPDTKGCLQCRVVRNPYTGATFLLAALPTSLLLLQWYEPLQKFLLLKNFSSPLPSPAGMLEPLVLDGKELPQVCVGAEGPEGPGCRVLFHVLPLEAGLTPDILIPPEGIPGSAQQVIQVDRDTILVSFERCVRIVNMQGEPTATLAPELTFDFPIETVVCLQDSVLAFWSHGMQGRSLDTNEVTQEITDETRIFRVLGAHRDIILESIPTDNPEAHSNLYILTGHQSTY

GSK3B = GSK3B (Homo sapiens (Human), UniProt P49841); test: ActivX kinase probe assay (human PBMC); format: binding; settings: GSK3B, read-out: percent inhibition
JAK1 domain2 = JAK1 domain2 (Homo sapiens (Human), UniProt P23458); test: ActivX kinase probe assay (human PBMC); format: binding; settings: JAK1 domain2, read-out: percent inhibition
JNK1, JNK2, JNK3 = test: ActivX kinase probe assay (human PBMC); format: binding
LRRK2 = LRRK2 (Homo sapiens (Human), UniProt Q5S007); test: ActivX kinase probe assay (human PBMC); format: binding; settings: 0.1 μM, read-out: percent inhibition
MAP2K1 = MAP2K1 (Homo sapiens (Human), UniProt Q02750); test: ActivX kinase probe assay (human PBMC); format: binding; settings: MAP2K1, read-out: percent inhibition
MLK3 = MLK3 (Homo sapiens (Human), UniProt Q16584); test: ActivX kinase probe assay (human PBMC); format: binding; settings: MLK3, read-out: percent inhibition
NDR1 = NDR1 (Homo sapiens (Human), UniProt Q15208); test: ActivX kinase probe assay (human PBMC); format: binding; settings: NDR1, read-out: percent inhibition
NDR2 = NDR2 (Homo sapiens (Human), UniProt Q9Y2H1); test: ActivX kinase probe assay (human PBMC); format: binding; settings: NDR2, read-out: percent inhibition
NEK9 = NEK9 (Homo sapiens (Human), UniProt Q8TD19); test: ActivX kinase probe assay (human PBMC); format: binding; settings: NEK9, read-out: percent inhibition
NuaK2 = NuaK2 (Homo sapiens (Human), UniProt Q9H093); test: ActivX kinase probe assay (human PBMC); format: binding; settings: NuaK2, read-out: percent inhibition
Sequence of NuaK2 (Q9H093 whole entry): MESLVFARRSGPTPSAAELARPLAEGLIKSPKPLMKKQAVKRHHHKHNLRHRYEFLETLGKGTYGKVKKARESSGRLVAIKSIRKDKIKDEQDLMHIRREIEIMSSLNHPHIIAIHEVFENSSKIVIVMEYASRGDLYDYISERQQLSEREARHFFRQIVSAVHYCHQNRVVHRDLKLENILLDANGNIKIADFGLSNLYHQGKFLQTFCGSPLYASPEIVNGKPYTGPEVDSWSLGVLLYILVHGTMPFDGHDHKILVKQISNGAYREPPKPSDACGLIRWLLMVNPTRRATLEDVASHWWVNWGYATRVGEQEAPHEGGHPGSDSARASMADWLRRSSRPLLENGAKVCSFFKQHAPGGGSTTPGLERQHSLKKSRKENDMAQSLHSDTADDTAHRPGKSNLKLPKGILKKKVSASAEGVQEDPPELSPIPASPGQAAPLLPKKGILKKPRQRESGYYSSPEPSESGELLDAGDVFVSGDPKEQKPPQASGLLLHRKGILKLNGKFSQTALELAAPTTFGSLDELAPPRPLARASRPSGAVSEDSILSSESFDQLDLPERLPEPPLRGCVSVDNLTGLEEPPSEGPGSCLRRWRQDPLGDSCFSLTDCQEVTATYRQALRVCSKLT

PAN3 = PAN3 (Homo sapiens (Human), UniProt Q58A45); test: ActivX kinase probe assay (human PBMC); format: binding; settings: PAN3, read-out: percent inhibition
Sequence of PAN3 (Q58A45 whole entry): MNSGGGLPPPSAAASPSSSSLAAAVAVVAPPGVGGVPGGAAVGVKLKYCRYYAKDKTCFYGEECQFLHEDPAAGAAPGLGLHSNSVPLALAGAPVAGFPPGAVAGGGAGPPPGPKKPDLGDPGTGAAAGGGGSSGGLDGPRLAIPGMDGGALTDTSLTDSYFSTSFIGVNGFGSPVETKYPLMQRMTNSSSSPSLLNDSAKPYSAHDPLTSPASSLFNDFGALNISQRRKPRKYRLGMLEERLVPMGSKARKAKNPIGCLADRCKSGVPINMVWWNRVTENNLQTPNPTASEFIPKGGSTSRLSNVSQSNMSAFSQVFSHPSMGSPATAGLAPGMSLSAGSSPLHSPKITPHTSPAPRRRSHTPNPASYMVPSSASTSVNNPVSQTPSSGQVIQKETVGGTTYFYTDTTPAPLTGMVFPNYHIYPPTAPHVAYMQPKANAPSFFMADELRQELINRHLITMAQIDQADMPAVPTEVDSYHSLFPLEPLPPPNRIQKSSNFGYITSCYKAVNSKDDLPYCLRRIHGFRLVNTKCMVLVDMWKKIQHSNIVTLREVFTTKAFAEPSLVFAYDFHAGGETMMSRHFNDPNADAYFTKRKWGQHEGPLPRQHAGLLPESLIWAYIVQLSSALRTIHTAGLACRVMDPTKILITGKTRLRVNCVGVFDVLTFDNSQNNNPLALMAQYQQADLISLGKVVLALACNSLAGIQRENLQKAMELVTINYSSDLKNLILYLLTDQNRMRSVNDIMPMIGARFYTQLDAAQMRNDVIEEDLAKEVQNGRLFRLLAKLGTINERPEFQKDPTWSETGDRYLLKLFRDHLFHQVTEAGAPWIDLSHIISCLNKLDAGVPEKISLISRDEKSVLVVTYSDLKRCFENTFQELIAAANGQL

PIK3C3 = PIK3C3 (Homo sapiens (Human), UniProt Q8NEB9); test: ActivX kinase probe assay (human PBMC); format: binding; settings: PIK3C3, read-out: percent inhibition
PIK3CG = PIK3CG (Homo sapiens (Human), UniProt P48736); test: ActivX kinase probe assay (human PBMC); format: binding; settings: PIK3CG, read-out: percent inhibition
RIPK3 = RIPK3 (Homo sapiens (Human), UniProt Q9Y572); test: ActivX kinase probe assay (human PBMC); format: binding; settings: RIPK3, read-out: percent inhibition
RSK1, RSK2, RSK3 domain1 = test: ActivX kinase probe assay (human PBMC); format: binding
RSK2 domain2 = RSK2 domain2 (Homo sapiens (Human), UniProt P51812); test: ActivX kinase probe assay (human PBMC); format: binding; settings: RSK2 domain2, read-out: percent inhibition
RSKL1 domain1 = RSKL1 domain1 (Homo sapiens (Human), UniProt Q96S38); test: ActivX kinase probe assay (human PBMC); format: binding; settings: RSKL1 domain1, read-out: percent inhibition
SLK = SLK (Homo sapiens (Human), UniProt Q9H2G2); test: ActivX kinase probe assay (human PBMC); format: binding; settings: SLK, read-out: percent inhibition
Sequence of SLK (Q9H2G2 whole entry): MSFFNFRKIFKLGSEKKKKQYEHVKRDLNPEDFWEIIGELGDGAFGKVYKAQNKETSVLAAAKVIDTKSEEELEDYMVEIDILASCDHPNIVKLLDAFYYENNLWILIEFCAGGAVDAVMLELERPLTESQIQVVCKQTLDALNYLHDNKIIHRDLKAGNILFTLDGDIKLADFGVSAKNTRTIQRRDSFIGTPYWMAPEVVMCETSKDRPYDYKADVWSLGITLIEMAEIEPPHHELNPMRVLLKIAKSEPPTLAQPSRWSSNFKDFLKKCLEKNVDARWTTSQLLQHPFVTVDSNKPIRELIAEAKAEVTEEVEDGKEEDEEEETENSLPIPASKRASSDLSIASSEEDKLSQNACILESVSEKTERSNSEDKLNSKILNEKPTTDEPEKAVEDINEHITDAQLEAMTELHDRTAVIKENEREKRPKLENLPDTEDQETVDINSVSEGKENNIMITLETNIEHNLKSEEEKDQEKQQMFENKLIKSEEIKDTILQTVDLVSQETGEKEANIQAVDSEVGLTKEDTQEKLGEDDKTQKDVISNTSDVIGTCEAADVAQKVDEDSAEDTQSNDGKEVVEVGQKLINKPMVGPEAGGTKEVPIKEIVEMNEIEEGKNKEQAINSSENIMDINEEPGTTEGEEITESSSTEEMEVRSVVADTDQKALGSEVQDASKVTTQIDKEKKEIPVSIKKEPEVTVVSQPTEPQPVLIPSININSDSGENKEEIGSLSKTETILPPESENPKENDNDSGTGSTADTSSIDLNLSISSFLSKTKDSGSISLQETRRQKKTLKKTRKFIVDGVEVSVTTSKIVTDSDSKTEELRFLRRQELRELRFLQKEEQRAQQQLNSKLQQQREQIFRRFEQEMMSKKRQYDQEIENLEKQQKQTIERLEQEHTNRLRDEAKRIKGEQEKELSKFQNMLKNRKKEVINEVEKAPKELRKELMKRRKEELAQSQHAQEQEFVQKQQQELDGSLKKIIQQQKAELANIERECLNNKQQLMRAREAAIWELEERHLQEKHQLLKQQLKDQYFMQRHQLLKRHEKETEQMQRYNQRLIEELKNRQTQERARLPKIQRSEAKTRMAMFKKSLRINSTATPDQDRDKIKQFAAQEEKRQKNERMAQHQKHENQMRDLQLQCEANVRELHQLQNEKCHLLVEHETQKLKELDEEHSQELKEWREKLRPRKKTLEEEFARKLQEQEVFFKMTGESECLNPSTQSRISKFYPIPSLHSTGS

SMG1 = SMG1 (Homo sapiens (Human), UniProt Q96Q15); test: ActivX kinase probe assay (human PBMC); format: binding; settings: SMG1, read-out: percent inhibition
SRC = SRC (Homo sapiens (Human), UniProt P12931); test: ActivX kinase probe assay (human PBMC); format: binding; settings: SRC, read-out: percent inhibition
TBK1 = TBK1 (Homo sapiens (Human), UniProt Q9UHD2); test: ActivX kinase probe assay (human PBMC); format: binding; settings: TBK1, read-out: percent inhibition
Sequence of TBK1 (Q9UHD2 whole entry): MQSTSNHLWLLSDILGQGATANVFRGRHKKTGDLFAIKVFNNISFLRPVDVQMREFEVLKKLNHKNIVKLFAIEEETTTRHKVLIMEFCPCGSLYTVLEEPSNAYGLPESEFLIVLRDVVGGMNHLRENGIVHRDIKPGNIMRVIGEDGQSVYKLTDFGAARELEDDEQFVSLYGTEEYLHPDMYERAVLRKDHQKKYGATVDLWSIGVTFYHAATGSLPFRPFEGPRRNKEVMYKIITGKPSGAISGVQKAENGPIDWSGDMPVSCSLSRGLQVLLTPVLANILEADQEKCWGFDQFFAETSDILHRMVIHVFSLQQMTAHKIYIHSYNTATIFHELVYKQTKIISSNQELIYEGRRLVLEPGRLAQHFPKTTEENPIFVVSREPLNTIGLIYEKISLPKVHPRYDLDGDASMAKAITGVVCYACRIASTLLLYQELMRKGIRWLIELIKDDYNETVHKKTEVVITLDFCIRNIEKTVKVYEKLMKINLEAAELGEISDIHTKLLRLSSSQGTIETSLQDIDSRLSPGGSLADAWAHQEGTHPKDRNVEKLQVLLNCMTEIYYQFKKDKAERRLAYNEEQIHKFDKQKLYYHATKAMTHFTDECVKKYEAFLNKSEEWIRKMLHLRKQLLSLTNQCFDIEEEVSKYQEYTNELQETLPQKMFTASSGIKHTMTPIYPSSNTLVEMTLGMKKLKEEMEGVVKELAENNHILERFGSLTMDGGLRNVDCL

TLK1 = TLK1 (Homo sapiens (Human), UniProt Q9UKI8); test: ActivX kinase probe assay (human PBMC); format: binding; settings: TLK1, read-out: percent inhibition
ULK3 = ULK3 (Homo sapiens (Human), UniProt Q6PHR2); test: ActivX kinase probe assay (human PBMC); format: binding; settings: ULK3, read-out: percent inhibition
Wnk1, Wnk2, Wnk3 = test: ActivX kinase probe assay (human PBMC); format: binding
Wnk1, Wnk2, Wnk4 = test: ActivX kinase probe assay (human PBMC); format: binding
ZAP70 = ZAP70 (Homo sapiens (Human), UniProt P43403); test: ActivX kinase probe assay (human PBMC); format: binding; settings: ZAP70, read-out: percent inhibition

Cn1cc(-c2c[nH]c3ncnc(N4CCOCC4)c23)cc1C#N [Example 217, 1-methyl-4-[4-(morpholin-4-yl)-7H-pyrrolo[2,3-d]pyrimidin-5-yl]-1H-pyrrole-2-carbonitrile]
IC50 [1]: 6.37 nM
inhibition at 0.1 µM (CaMK2g; 0.1 μM): 4.3%
inhibition at 1 µM (CaMK2g; 1 μM): 18.7%
inhibition at 0.1 µM (CDC2; 0.1 μM): 28.7%
inhibition at 1 µM (CDC2; 1 μM): 24.4%
inhibition at 0.1 µM (CDK2; 0.1 μM): 3.6%
inhibition at 1 µM (CDK2; 1 μM): 16.5%
inhibition at 0.1 µM (eEF2K; 0.1 μM): -12.1%
inhibition at 1 µM (eEF2K; 1 μM): 2.2%
inhibition at 0.1 µM (Erk5; 0.1 μM): -2.6%
inhibition at 1 µM (Erk5; 1 μM): -5.4%
inhibition at 0.1 µM (FES; 0.1 μM): 8.4%
inhibition at 1 µM (FES; 1 μM): 6.2%
inhibition at 0.1 µM (GCK; 0.1 μM): -5.2%
inhibition at 1 µM (GCK; 1 μM): 27.2%
inhibition at 0.1 µM (GSK3B; 0.1 μM): -4.3%
inhibition at 1 µM (GSK3B; 1 μM): 12.4%
inhibition at 0.1 µM (JAK1 domain2; 0.1 μM): 7.4%
inhibition at 1 µM (JAK1 domain2; 1 μM): 10.1%
percent inhibition (JNK1, JNK2, JNK3; 0.1 μM): −18.2%
percent inhibition (JNK1, JNK2, JNK3; 1 μM): −6.4%
inhibition at 0.1 µM (LRRK2): 88.4%
inhibition at 0.1 µM (MAP2K1; 0.1 μM): 17.2%
inhibition at 1 µM (MAP2K1; 1 μM): -1.5%
inhibition at 0.1 µM (MLK3; 0.1 μM): -13.5%
inhibition at 1 µM (MLK3; 1 μM): -9.6%
inhibition at 0.1 µM (NDR1; 0.1 μM): 16.3%
inhibition at 1 µM (NDR1; 1 μM): -17.7%
inhibition at 0.1 µM (NDR2; 0.1 μM): 28.9%
inhibition at 1 µM (NDR2; 1 μM): -6%
inhibition at 0.1 µM (NEK9; 0.1 μM): -11%
inhibition at 1 µM (NEK9; 1 μM): 1.5%
inhibition at 0.1 µM (NuaK2; 0.1 μM): 1.3%
inhibition at 1 µM (NuaK2; 1 μM): 24.9%
inhibition at 0.1 µM (PAN3; 0.1 μM): 5.6%
inhibition at 1 µM (PAN3; 1 μM): -7.5%
inhibition at 0.1 µM (PIK3C3; 0.1 μM): 19.9%
inhibition at 1 µM (PIK3C3; 1 μM): 10.2%
inhibition at 0.1 µM (PIK3CG; 0.1 μM): -3.4%
inhibition at 1 µM (PIK3CG; 1 μM): -22%
inhibition at 0.1 µM (RIPK3; 0.1 μM): -7.3%
inhibition at 1 µM (RIPK3; 1 μM): -9.1%
percent inhibition (RSK1, RSK2, RSK3 domain1; 0.1 μM): 5.0%
percent inhibition (RSK1, RSK2, RSK3 domain1; 1 μM): 48.5%
inhibition at 0.1 µM (RSK2 domain2; 0.1 μM): -4.1%
inhibition at 1 µM (RSK2 domain2; 1 μM): 2.8%
inhibition at 0.1 µM (RSKL1 domain1; 0.1 μM): -15.9%
inhibition at 1 µM (RSKL1 domain1; 1 μM): -30.6%
inhibition at 0.1 µM (SLK; 0.1 μM): 22.5%
inhibition at 1 µM (SLK; 1 μM): 39.1%
inhibition at 0.1 µM (SMG1; 0.1 μM): 1.5%
inhibition at 1 µM (SMG1; 1 μM): -6.1%
inhibition at 0.1 µM (SRC; 0.1 μM): -1%
inhibition at 1 µM (SRC; 1 μM): 1.1%
inhibition at 0.1 µM (TBK1; 0.1 μM): 1.9%
inhibition at 1 µM (TBK1; 1 μM): 0.1%
inhibition at 0.1 µM (TLK1; 0.1 μM): 7.6%
inhibition at 1 µM (TLK1; 1 μM): 16.7%
inhibition at 0.1 µM (ULK3; 0.1 μM): -8.6%
inhibition at 1 µM (ULK3; 1 μM): 17.4%
percent inhibition (Wnk1, Wnk2, Wnk3; 0.1 μM): −6.3%
percent inhibition (Wnk1, Wnk2, Wnk3; 1 μM): −21.1%
percent inhibition (Wnk1, Wnk2, Wnk4; 0.1 μM): 2.2%
percent inhibition (Wnk1, Wnk2, Wnk4; 1 μM): −5.4%
inhibition at 0.1 µM (ZAP70; 0.1 μM): -25%
inhibition at 1 µM (ZAP70; 1 μM): -6%
